Read-outs that look alike come from different tables or passages of the source.
Assays:
μ-opioid receptor [1] = biological target: T1, μ-opioid receptor (Homo sapiens (Human), UniProt P35372); test: μ-opioid receptor radioligand dose-displacement binding assay ([3H]-diprenorphine); conditions: binding affinity, μ-opioid receptor membranes
Procedure: μ-opioid Receptor Binding Assay Procedures: Radioligand dose-displacement binding assays for μ-opioid receptors used 0.3 nM [^3H]-diprenorphine (Perkin Elmer, Shelton, Conn.), with […] membrane protein/well in a final volume of 500 μl binding buffer (10 mM MgCl2, 1 mM EDTA, 5% DMSO, 50 mM HEPES, pH 7.4). Reactions were carried out in the absence or presence of increasing concentrations of unlabeled naloxone. All reactions were conducted in 96-deep well polypropylene plates for 2 hr at room temperature. Binding reactions were terminated by rapid filtration onto 96-well Unifilter GF/C filter plates (Perkin Elmer, Shelton, Conn.), presoaked in 0.5% polyethylenimine using a 96-well tissue harvester (Perkin Elmer, Shelton, Conn.) followed by performing three filtration washes with 500 μl of ice-cold binding buffer. Filter plates were subsequently dried at 50° C. for 2-3 hours. BetaScint scintillation cocktail (Perkin Elmer, Shelton, Conn.) was added (50 μl/well), and plates were counted using a Packard Top-Count for 1 min/well. The data were analyzed using the one-site competition curve fitting functions in GraphPad PRISM™ v. 3.0 or higher (San Diego. Calif.), or an in-house function for one-site competition curve-fitting.

κ opioid receptor [2] = biological target: T2, κ opioid receptor (Homo sapiens (Human), UniProt P41145); test: κ-opioid receptor radioligand dose-displacement binding assay ([3H]-U69,593)
Procedure: κ-opioid Receptor Binding Assay Procedures: Membranes from recombinant HEK-293 cells expressing the human κ opioid receptor (cloned in house) were prepared by lysing cells in ice cold hypotonic buffer (2.5 mM MgCl2, 50 mM HEPES, pH 7.4) (10 mL/10 cm dish) followed by homogenization with a tissue grinder/Teflon pestle. Membranes were collected by centrifugation at 30,000× g for 15 min at 4° C. and pellets were resuspended in hypotonic buffer to a final concentration of 1-3 mg/mL. Protein concentrations were determined using the BioRad protein assay reagent with bovine serum albumen as standard. Aliquots of κ receptor membranes were stored at −80° C.
Radioligand dose displacement assays used 0.4 nM [^3]-U69,593 (GE Healthcare, Piscataway, N.J.; 40 Ci/mmole) with 15 μg membrane protein (recombinant κ opioid receptor expressed in HEK 293 cells; in-house prep) in a final volume of 200 μl binding buffer (5% DMSO, 50 mM Trizma base, pH 7.4). Non-specific binding was determined in the presence of 10 μM unlabeled naloxone or U69,593. All reactions were performed in 96-well polypropylene plates for 1 hr at a temperature of about 25° C. Binding reactions were terminated by rapid filtration onto 96-well Unifilter GF/C filter plates (Perkin Elmer, Shelton, Conn.) presoaked in 0.5% polyethylenimine (Sigma). Harvesting was performed using a 96-well tissue harvester (Perkin Elmer, Shelton, Conn.) followed by five filtration washes with 200 μl ice-cold binding buffer. Filter plates were subsequently dried at 50° C. for 1-2 hours. Fifty μl/well scintillation cocktail (Perkin Elmer, Shelton, Conn.) was added and plates were counted in a Packard Top-Count for 1 min/well. Data were analyzed using the sigmoidal dose-response curve fitting functions in GraphPad PRISM™ v. 3.0, or an in-house function for non-linear, sigmoidal dose-response curve-fitting.
κ-opioid Receptor Binding Data: In certain embodiments, the Compounds of the Invention will have a Ki (nM) for κ receptors of about 10,000 or more (which, for purposes of this invention, is interpreted as having no binding to the κ receptors).

μ-opioid receptor [3] = biological target: T1, μ-opioid receptor; test: μ-opioid receptor [35S]GTPγS functional assay; format: biochemical; conditions: for Emax: maximal effect relative to DAMGO
Procedure: μ-Opioid Receptor Functional Assay Procedures: [^35S]GTPγS functional assays were conducted using freshly thawed μ-receptor membranes (Perkin Elmer, Shelton, Conn.). Assay reactions were prepared by sequentially adding the following reagents to binding buffer (100 mM NaCl, 10 mM MgCl2, 20 mM HEPES, pH 7.4) on ice (final concentrations indicated): membrane protein (0.026 mg/mL), saponin ([…]), GDP ([…]) and [^35S]GTPγS (0.20 nM; Perkin Elmer, Shelton, Conn.). The prepared membrane solution (190 μl/well) was transferred to 96-shallow well polypropylene plates containing 10 μl of 20× concentrated stock solutions of the agonist [D-Ala^2, N-methyl-Phe^4 Gly-ol^5]-enkephalin (DAMGO) prepared in dimethyl sulfoxide (DMSO). Plates were incubated for 30 min at about 25° C. with shaking. Reactions were terminated by rapid filtration onto 96-well Unifilter GF/B filter plates (Perkin Elmer, Shelton, Conn.) using a 96-well tissue harvester (Perkin Elmer, Shelton, Conn.) followed by three filtration washes with 200 μl of ice-cold wash buffer (10 mM NaH2PO4, 10 mM Na2HPO4, pH 7.4). Filter plates were subsequently dried at 50° C. for 2-3 hr, BetaScint scintillation cocktail (Perkin Elmer, Shelton, Conn.) was added (50 μl/well) and plates were counted using a Packard Top-Count for […]. Data were analyzed using the sigmoidal dose-response curve fitting functions in GraphPad PRISM™; v. 3.0, or an in-house function for non-linear, sigmoidal dose-response curve-fitting.
μ-Opioid Receptor Functional Data: μ GTP EC50 is the concentration of a compound providing 50% of the maximal response for the compound, at a μ-opioid receptor. […] In certain embodiments.
μ GTP Emax (%) is the maximal effect elicited by a compound relative to the effect elicited by DAMGO, a standard μ agonist. Generally, the μ GTP Emax (%) value measures the efficacy of a compound to treat or prevent pain or other Conditions.

κ opioid receptor [4] = biological target: T2, κ opioid receptor; test: κ-opioid receptor [35S]GTPγS functional assay; format: biochemical; conditions: for Emax: maximal effect relative to U69,593
Procedure: κ-Opioid Receptor Functional Assay Procedures: Functional [^35S]GTPγS binding assays were conducted as follows, k opioid receptor membrane solution was prepared by sequentially adding final concentrations of 0.026 μg/μl κ membrane protein (in-house), 10 μg/mL saponin, 3 μM GDP and 0.20 [^35S]GTPγS to binding buffer (100 mM NaCl, 10 mM MgCl2, 20 mM HEPES, pH 7.4) on ice. The prepared membrane solution (190 μl/well) was transferred to 96-shallow well polypropylene plates containing 10 μl of 20× concentrated stock solutions of agonist prepared in DMSO. Plates were incubated for 30 min at a temperature of about 25° C. with shaking. Reactions were terminated by rapid filtration onto 96-well Unifilter GF/B filter plates (Perkin Elmer, Shelton, Conn.) using a 96-well tissue harvester (Packard) and followed by three filtration washes with 200 μl ice-cold binding buffer (10 mM NaH2PO4, 10 mM Na2HPO4, pH 7.4). Filter plates were subsequently dried at 50° C. for 2-3 hours. Fifty μl/well scintillation cocktail (Perkin Elmer, Shelton, Conn.) was added and plates were counted in a Packard Top-Count for 1 min/well. Data were analyzed using the sigmoidal dose-response curve fitting functions in GraphPad PRISM™ v. 3.0, or an in-house function for non-linear, sigmoidal dose-response curve-fitting.
κ-Opioid Receptor Functional Data: κ GTP EC50 is the concentration of a compound providing 50% of the maximal response for the compound at a κ receptor.
κ GTP Emax (%) is the maximal effect elicited by a compound relative to the effect elicited by U69,593.

[5] = binding affinity, recombinant κ opioid receptor expressed in HEK 293 cells, read-out: Ki (nM) Opioid Receptor κ
[6] = μ GTP EC50, read-out: GTPγS μ EC50
[7] = κ GTP EC50, read-out: GTPγS κ EC50

Structure (SMILES) | Ki (μ-opioid receptor [1]) | Ki (κ opioid receptor [2]; [5]) | Emax (μ-opioid receptor [3]) | EC50 (μ-opioid receptor [3]; [6]) | Emax (κ opioid receptor [4]) | EC50 (κ opioid receptor [4]; [7]) | Ki (κ opioid receptor [2]) | EC50 (μ-opioid receptor [3]) | EC50 (κ opioid receptor [4])
O=C(O)CCC[C@]12CCN(CC3CC3)[C@H](Cc3ccc(O)cc31)[C@@H]2CC(=O)O [Compound 10, 4-((2R,6R,11R)-11-(carboxymethyl)-3-(cyclopropylmethyl)-8-hydroxy-1,2,3,4,5,6-hexahydro-2,6-methanobenzo[d]azocin-6-yl)butanoic acid] | 977 ± 335 nM | 64.5 ± 11.3 nM | 16 ± 3% | 70.5 ± 26.9 nM | 31.3 ± 1.86% | 275 ± 43.6 nM |  |  | 
CN(C)C(=O)CCC[C@]12CCN(CC3CC3)[C@H](Cc3ccc(O)cc31)/C2=C\C(=O)O [Compound 12, (Z)-2-((2R,6S)-3-(cyclopropylmethyl)-6-(4-(dimethylamino)-4-oxobutyl)-8-hydroxy-1,2,3,4,5,6-hexahydro-2,6-methanobenzo[d]azocin-11-ylidene)acetic acid] | 853 ± 199 nM | 42.5 ± 4.24 nM | 48.7 ± 3.53% | 421 ± 140 nM | 74.7 ± 1.2% | 1000 ± 106 nM |  |  | 
O=C(O)/C=C1\[C@H]2Cc3ccc(O)cc3[C@]1(CCCC(=O)O)CCN2CC1CC1 [Compound 13, 4-((2R,6S,Z)-11-(carboxymethylene)-3-(cyclopropylmethyl)-8-hydroxy-1,2,3,4,5,6-hexahydro-2,6-methanobenzo[d]azocin-6-yl)butanoic acid] | 1340 ± 356 nM | 66.8 ± 8.74 nM | 44.3 ± 9.06% | 743 ± 195 nM | 74.3 ± 7.84% | 555 ± 61.1 nM |  |  | 
COc1ccc2c(c1)[C@]1(CCO)CCN(CC3CC3)[C@H](C2)[C@@H]1CO [Compound 19, 2-((2R,6S,11R)-3-(cyclopropylmethyl)-11-(hydroxymethyl)-8-methoxy-1,2,3,4,5,6-hexahydro-2,6-methanobenzo[d]azocin-6-yl)ethanol] |  |  |  |  | 40.3 ± 5.36% |  | 89.6 ± 33 nM | > 20000 nM | 1860 ± 231 nM
COc1ccc2c(c1)[C@]1(CC(N)=O)CCN(CC3CC3)[C@H](C2)[C@@H]1CO [Compound 22, 2-((2R,6S,11R)-3-(cyclopropylmethyl)-11-(hydroxymethyl)-8-methoxy-1,2,3,4,5,6-hexahydro-2,6-methanobenzo[d]azocin-6-yl)acetamide] |  | 79.1 ± 19.1 nM | 56 ± 3.61% | 1280 ± 177 nM | 41.7 ± 4.91% | 2180 ± 326 nM |  |  | 

— US9056836B2, “Benzomorphan analogs and the use thereof” (Purdue Pharma L.P., priority 2013, dated 2015)
